Measured values as given in ChEMBL document CHEMBL4387741, “Optimization of novel reversible Bruton's tyrosine kinase inhibitors identified using Tethering-fragment-based screens” (Bioorg Med Chem, 2019).

How the values were obtained:
[1] = target: Ephrin type-B receptor 4 (Homo sapiens) (UniProt P54760); test: Inhibition of wild-type human partial length EPHB4 (H585 to G892 residues) expressed in bacterial expression system at 1 uM by Kinomescan method relative to control
[2] = target: Dual specificity mitogen-activated protein kinase kinase 4 (Homo sapiens) (UniProt P45985); test: Inhibition of wild-type human partial length MEK4 (S84 to D399 residues) expressed in mammalian expression system at 1 uM by Kinomescan method relative to control
[3] = target: Mitogen-activated protein kinase kinase kinase kinase 3 (Homo sapiens) (UniProt Q8IVH8); test: Inhibition of wild-type human partial length MAP4K3 (M1 to D301 residues) expressed in bacterial expression system at 1 uM by Kinomescan method relative to control
[4] = target: Serine/threonine-protein kinase D1 (Homo sapiens) (UniProt Q15139); test: Inhibition of wild-type human partial length PRKD1 (G551 to E870 residues) expressed in bacterial expression system at 1 uM by Kinomescan method relative to control
Chain of Serine/threonine-protein kinase D1 (Homo sapiens) (Q15139 whole entry, the tested form may be a part): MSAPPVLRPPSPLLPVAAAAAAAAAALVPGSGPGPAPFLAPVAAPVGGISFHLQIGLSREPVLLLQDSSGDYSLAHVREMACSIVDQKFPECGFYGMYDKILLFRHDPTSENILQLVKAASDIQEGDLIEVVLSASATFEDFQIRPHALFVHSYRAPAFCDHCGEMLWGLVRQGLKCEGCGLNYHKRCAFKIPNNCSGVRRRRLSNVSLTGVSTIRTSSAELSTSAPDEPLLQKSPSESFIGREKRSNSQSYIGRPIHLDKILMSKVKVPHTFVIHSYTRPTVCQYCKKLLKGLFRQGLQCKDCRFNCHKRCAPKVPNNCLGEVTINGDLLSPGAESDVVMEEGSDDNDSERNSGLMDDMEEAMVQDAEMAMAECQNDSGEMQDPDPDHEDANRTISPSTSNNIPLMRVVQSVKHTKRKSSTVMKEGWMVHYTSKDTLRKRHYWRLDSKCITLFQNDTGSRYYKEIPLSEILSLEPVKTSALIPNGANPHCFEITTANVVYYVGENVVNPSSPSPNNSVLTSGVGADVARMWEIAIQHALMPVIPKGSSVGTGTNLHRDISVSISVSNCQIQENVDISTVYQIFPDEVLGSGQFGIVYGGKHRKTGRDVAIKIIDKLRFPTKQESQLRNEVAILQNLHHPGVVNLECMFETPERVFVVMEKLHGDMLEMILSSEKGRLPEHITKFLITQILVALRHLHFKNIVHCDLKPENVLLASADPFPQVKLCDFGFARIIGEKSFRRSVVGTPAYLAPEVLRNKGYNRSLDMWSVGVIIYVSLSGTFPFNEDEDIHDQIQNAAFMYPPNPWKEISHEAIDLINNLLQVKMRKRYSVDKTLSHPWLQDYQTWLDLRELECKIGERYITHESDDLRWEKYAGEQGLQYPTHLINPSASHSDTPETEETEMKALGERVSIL

[5] = target: Eukaryotic translation initiation factor 2-alpha kinase 1 (Homo sapiens) (UniProt Q9BQI3); test: Inhibition of wild-type human partial length EIF2AK1 (Q147 to E603 residues) expressed in mammalian expression system at 1 uM by Kinomescan method relative to control
[6] = target: Tyrosine-protein kinase ABL1 (Homo sapiens) (UniProt P00519); test: Inhibition of wild-type human phosphorylated ABL1 (S229 to K512 residues) expressed in mammalian expression system at 1 uM by Kinomescan method relative to control
[7] = target: Protein kinase C epsilon type (Homo sapiens) (UniProt Q02156); test: Inhibition of wild-type human partial length PRKCE (A378 to P737 residues) expressed in mammalian expression system at 1 uM by Kinomescan method relative to control
Chain of Protein kinase C epsilon type (Homo sapiens) (Q02156 whole entry, the tested form may be a part): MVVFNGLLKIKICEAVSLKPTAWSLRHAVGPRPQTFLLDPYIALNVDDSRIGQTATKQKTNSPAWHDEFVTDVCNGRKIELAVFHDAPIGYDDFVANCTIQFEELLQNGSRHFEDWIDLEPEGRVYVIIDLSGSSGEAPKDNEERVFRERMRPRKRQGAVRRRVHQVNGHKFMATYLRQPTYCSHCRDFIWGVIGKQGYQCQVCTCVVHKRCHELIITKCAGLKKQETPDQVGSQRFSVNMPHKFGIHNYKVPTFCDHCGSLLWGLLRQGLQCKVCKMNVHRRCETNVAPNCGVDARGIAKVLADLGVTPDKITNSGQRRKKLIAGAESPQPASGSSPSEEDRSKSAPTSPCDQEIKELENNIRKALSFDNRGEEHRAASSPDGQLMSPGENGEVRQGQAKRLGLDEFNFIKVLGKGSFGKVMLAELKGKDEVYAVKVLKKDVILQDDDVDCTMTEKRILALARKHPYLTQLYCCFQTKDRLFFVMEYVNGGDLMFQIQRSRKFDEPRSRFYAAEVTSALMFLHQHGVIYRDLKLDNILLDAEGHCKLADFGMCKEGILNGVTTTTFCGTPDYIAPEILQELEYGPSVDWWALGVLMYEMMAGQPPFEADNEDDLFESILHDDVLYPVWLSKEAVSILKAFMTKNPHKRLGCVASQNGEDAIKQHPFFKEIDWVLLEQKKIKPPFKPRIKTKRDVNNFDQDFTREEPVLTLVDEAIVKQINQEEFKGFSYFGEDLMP

[8] = target: Serine/threonine-protein kinase PAK 5 (Homo sapiens) (UniProt Q9P286); test: Inhibition of wild-type human partial length PAK7 (Y400 to H719 residues) expressed in bacterial expression system at 1 uM by Kinomescan method relative to control
[9] = tested on: Mast/stem cell growth factor receptor Kit (Homo sapiens), P10721 [D816V]; test: Inhibition of human partial length KIT D816V mutant (I571 to D952 residues) expressed in bacterial expression system at 1 uM by Kinomescan method relative to control
Chain of Mast/stem cell growth factor receptor Kit (Homo sapiens), P10721 [D816V] (P10721 whole entry D816V, the tested form may be a part): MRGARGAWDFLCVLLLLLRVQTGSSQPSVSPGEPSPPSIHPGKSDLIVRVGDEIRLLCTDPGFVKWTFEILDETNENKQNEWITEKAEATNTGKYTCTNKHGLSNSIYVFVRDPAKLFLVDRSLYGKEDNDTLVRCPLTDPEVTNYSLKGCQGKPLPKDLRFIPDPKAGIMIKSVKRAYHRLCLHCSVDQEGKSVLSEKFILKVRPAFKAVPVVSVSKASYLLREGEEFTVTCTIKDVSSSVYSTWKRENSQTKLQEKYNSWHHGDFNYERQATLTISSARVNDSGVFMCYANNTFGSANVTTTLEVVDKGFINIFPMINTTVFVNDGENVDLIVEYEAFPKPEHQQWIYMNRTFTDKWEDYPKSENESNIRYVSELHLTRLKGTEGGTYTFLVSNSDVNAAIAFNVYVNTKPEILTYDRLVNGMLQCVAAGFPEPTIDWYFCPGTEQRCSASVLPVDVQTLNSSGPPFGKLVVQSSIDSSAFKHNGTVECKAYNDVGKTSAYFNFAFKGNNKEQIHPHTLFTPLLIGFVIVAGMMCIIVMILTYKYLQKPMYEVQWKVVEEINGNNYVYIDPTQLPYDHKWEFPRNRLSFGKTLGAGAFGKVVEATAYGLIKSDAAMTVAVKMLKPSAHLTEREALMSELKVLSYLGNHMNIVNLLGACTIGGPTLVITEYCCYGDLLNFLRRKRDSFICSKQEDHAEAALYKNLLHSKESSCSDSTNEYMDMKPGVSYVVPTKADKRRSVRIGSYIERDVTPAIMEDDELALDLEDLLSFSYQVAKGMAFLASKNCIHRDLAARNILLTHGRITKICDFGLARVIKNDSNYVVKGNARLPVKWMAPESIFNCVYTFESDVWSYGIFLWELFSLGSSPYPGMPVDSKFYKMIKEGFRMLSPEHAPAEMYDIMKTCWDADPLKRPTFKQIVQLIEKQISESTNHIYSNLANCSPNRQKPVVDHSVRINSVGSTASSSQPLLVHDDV

[10] = target: Ribosomal protein S6 kinase alpha-4 (Homo sapiens) (UniProt O75676); test: Inhibition of wild-type human partial length C-terminal RPS6KA4 kinase domain 2 (M375 to T705 residues) expressed in mammalian expression system at 1 uM by Kinomescan method relative to control
[11] = target: Serine/threonine-protein kinase ULK3 (Homo sapiens) (UniProt Q6PHR2); test: Inhibition of wild-type human partial length ULK3 (M1 to Q290 residues) expressed in mammalian expression system at 1 uM by Kinomescan method relative to control
[12] = target: Activin receptor type-2A (Homo sapiens) (UniProt P27037); test: Inhibition of wild-type human ACVR2A (V171 to T499 residues) expressed in bacterial expression system at 1 uM by Kinomescan method relative to control
[13] = target: Serine/threonine-protein kinase pim-3 (Homo sapiens) (UniProt Q86V86); test: Inhibition of wild-type human partial length PIM3 (G16 to A317 residues) expressed in bacterial expression system at 10 uM by Kinomescan method relative to control
[14] = target: Proto-oncogene tyrosine-protein kinase ROS (Homo sapiens) (UniProt P08922); test: Inhibition of wild-type human partial length ROS1 (A1921 to N2240 residues) expressed in bacterial expression system at 10 uM by Kinomescan method relative to control
[15] = target: Cyclin-dependent kinase 18 (Homo sapiens) (UniProt Q07002); test: Inhibition of wild-type human full length PCTK3 (M3 to F474 residues) expressed in bacterial expression system at 10 uM by Kinomescan method relative to control
Chain of Cyclin-dependent kinase 18 (Homo sapiens) (Q07002 whole entry, the tested form may be a part): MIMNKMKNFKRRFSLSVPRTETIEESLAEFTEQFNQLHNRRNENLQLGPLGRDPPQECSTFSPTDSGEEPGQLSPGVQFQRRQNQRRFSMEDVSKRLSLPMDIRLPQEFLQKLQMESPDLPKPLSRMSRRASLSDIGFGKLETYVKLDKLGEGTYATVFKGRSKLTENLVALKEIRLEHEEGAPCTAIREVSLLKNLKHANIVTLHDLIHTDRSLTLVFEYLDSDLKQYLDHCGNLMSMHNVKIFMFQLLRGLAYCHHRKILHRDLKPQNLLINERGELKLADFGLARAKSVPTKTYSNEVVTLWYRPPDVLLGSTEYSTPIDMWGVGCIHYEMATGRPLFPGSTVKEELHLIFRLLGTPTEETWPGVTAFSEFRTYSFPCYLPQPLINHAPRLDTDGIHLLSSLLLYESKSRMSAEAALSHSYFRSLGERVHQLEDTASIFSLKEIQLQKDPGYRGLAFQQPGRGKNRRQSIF

[16] = target: Cyclin-dependent kinase 4/cyclin D1 (Homo sapiens) (UniProt P11802+P24385); test: Inhibition of wild-type human full length CDK4/cyclinD1 (M1 to E303 residues) expressed in mammalian expression system at 10 uM by Kinomescan method relative to control
[17] = target: Rhodopsin kinase GRK7 (Homo sapiens) (UniProt Q8WTQ7); test: Inhibition of wild-type human full length GRK7 (M1 to L553 residues) expressed in mammalian expression system at 10 uM by Kinomescan method relative to control
Chain of Rhodopsin kinase GRK7 (Homo sapiens) (Q8WTQ7 whole entry, the tested form may be a part): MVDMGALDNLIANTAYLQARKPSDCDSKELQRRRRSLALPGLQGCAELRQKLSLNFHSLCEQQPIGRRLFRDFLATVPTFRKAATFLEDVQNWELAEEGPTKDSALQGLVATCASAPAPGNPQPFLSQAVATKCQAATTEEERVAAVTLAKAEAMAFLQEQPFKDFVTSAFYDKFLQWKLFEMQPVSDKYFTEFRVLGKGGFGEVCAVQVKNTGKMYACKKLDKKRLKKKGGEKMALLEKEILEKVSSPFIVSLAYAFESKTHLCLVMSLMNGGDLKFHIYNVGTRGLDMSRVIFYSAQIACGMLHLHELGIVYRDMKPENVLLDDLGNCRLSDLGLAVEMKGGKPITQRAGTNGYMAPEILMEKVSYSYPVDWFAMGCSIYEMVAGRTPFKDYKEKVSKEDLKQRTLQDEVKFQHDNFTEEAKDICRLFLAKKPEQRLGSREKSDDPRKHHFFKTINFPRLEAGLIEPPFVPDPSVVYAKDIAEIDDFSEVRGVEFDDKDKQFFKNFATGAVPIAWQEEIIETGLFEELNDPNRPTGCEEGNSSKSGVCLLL

[18] = target: Tyrosine-protein kinase SYK (Homo sapiens) (UniProt P43405); test: Inhibition of wild-type human partial length SYK (D354 to N635 residues) expressed in bacterial expression system at 10 uM by Kinomescan method relative to control
[19] = target: Protein kinase C epsilon type (Homo sapiens) (UniProt Q02156); test: Inhibition of wild-type human partial length PRKCE (A378 to P737 residues) expressed in mammalian expression system at 10 uM by Kinomescan method relative to control
[20] = tested on: Epidermal growth factor receptor (Homo sapiens), P00533 [T790M]; test: Inhibition of human partial length EGFR T790M mutant (R669 to G1022 residues) expressed in mammalian expression system at 10 uM by Kinomescan method relative to control
Chain of Epidermal growth factor receptor (Homo sapiens), P00533 [T790M] (P00533 whole entry T790M, the tested form may be a part): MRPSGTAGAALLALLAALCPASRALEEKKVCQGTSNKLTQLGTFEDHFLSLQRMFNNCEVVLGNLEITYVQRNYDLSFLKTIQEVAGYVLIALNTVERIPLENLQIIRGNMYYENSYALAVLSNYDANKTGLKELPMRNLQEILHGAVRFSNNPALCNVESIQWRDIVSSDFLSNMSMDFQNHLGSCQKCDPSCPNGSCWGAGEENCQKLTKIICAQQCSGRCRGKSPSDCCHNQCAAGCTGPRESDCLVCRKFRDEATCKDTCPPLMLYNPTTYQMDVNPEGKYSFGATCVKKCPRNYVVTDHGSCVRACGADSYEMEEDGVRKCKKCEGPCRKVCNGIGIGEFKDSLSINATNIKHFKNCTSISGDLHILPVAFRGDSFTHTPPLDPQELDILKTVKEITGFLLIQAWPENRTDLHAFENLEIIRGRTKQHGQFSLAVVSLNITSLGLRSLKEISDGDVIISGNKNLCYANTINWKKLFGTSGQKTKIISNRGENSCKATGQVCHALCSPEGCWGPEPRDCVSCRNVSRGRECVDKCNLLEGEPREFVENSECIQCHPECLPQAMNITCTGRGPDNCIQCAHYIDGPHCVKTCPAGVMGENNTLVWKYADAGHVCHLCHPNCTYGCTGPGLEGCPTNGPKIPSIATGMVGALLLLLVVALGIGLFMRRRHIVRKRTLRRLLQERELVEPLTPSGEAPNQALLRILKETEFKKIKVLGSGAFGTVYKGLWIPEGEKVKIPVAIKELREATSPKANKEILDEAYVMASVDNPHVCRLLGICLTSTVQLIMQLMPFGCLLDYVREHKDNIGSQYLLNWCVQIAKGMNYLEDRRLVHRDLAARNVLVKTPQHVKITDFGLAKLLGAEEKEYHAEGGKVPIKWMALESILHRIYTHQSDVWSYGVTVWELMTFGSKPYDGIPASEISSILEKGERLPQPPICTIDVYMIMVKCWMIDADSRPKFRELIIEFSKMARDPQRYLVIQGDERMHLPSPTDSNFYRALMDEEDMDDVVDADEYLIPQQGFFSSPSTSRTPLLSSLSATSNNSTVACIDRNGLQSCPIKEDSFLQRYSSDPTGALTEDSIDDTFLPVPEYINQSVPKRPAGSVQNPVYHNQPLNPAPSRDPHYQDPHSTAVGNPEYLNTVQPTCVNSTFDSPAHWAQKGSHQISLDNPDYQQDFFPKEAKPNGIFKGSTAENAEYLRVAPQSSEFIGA

[21] = target: Tyrosine-protein kinase Lck (Homo sapiens) (UniProt P06239); test: Inhibition of wild-type human partial length LCK (R207 to P509 residues) expressed in bacterial expression system at 10 uM by Kinomescan method relative to control
[22] = target: NUAK family SNF1-like kinase 1 (Homo sapiens) (UniProt O60285); test: Inhibition of wild-type human partial length ARK5 (E25 to I332 residues) expressed in bacterial expression system at 10 uM by Kinomescan method relative to control
[23] = target: NUAK family SNF1-like kinase 2 (Homo sapiens) (UniProt Q9H093); test: Inhibition of wild-type human partial length SNARK (P22 to A333 residues) expressed in mammalian expression system at 10 uM by Kinomescan method relative to control
[24] = target: Serine/threonine-protein kinase 38-like (Homo sapiens) (UniProt Q9Y2H1); test: Inhibition of wild-type human partial length NDR2 (N34 to E447 residues) expressed in bacterial expression system at 10 uM by Kinomescan method relative to control
[25] = target: RAF proto-oncogene serine/threonine-protein kinase (Homo sapiens) (UniProt P04049); test: Inhibition of wild-type human partial length RAF1 (I330 to T640 residues) expressed in bacterial expression system at 10 uM by Kinomescan method relative to control
[26] = target: Tyrosine-protein kinase Srms (Homo sapiens) (UniProt Q9H3Y6); test: Inhibition of wild-type human partial length SRMS (L208 to P488 residues) expressed in mammalian expression system at 10 uM by Kinomescan method relative to control
[27] = target: Ephrin type-A receptor 2 (Homo sapiens) (UniProt P29317); test: Inhibition of wild-type human partial length EPHA2 (T593 to V891 residues) expressed in bacterial expression system at 10 uM by Kinomescan method relative to control

O=C(Nc1cccc([C@@H]2CN(c3ncnc4[nH]ccc34)CCN2CCO)c1)Nc1c(F)cccc1N1CCCC1
inhibition [1]: 95% | inhibition [2]: 7.2% | inhibition [3]: 71% | inhibition [4]: 100% | inhibition [5]: 100% | inhibition [6]: 62% | inhibition [7]: 72% | inhibition [8]: 98% | inhibition [9]: 2% | inhibition [10]: 97% | inhibition [11]: 11% | inhibition [12]: 100%

O=C(Nc1cccc([C@H]2CCCN(c3ncnc4[nH]ccc34)C2)c1)Nc1ccccc1N1CCCC1
inhibition [13]: 89% | inhibition [14]: 72% | inhibition [15]: 70% | inhibition [16]: 74% | inhibition [17]: 80% | inhibition [18]: 52% | inhibition [19]: 59% | inhibition [20]: 66% | inhibition [21]: 48% | inhibition [22]: 25% | inhibition [23]: 6.6% | inhibition [24]: 100% | inhibition [25]: 86% | inhibition [26]: 65% | inhibition [27]: 50%
